We go through 16 molecules from patent US11123292B2, “Use of biocompatible microdroplets for the treatment of atherosclerosis, heart disease and stroke” (priority 2014, dated 2021).

The structures appear in SMILES notation. Entries after “also recorded” stand apart in the source; their conditions may differ. Like-named read-outs stand apart in the source and are kept apart here. Where only a bound is given, the exact number is not on record here.

Data set [1] can be described thus: Water insoluble solvents tested for dissolving cholesterol / arterial plaque. The note with it: medium not stated. The text has this: (§1) To effectively dissolve arterial plaque in-vivo it is very important that the biocompatible solvent be sufficiently insoluble in blood to allow a small discrete microdroplet to travel through the blood stream, from the injection point, to the plaque which is being treated. If the biocompatible solvent dissolves within the blood, such as an alcohol, the solubility parameters of the resultant mixture will be very nearly identical to that of blood and will not dissolve cholesterol or arterial plaque. Conversely, if a discrete microdroplet of the biocompatible solvent makes contact with the plaque, then the cholesterol molecule in the plaque will be surrounded by multiple molecules of the biocompatible solvent, which have similar solubility parameters as the cholesterol, and the cholesterol will be drawn away from the plaque and into the droplet. […] An organic salt, Esters, an organo-metallic compound could also be used as the main component or an addition to the biocompatible microdroplet solvent means. Essentially any organic molecule which can be administered intravenously with acceptable side effects, is sufficiently insoluble in blood to travel as a discrete microdroplet without being dissolved prior to reaching arterial plaque and which is capable of dissolving cholesterol, cholesterol esters or other materials within the arterial plaque, could potentially be used.

The conditions of data set [2]: single compound; cited from earlier work.
The conditions of data set [3]: cited from earlier work; for mass fraction of cholesterol which will dissolve in a pure solution of the alcohol: 37° C.
Data set [4] in a line: Relative Energy Difference (RED) with cholesterol, calculated from HSP. As to conditions: for Ra^2 versus cholesterol: Eq. 1; for Relative Energy Difference (RED) with cholesterol: RED=Ra/Ro, Ro of cholesterol 12.6. On the procedure: The extent to which two compounds will dissolve each other can be quantified using the equations developed by Hansen: (Ra)^2=4(δd2−δd1)^2+(δp2−δp1)^2+(δh2−δh1)^2 Eq. (1) RED=Ra/Ro Eq. (2)
Equation 1 calculates the relative magnitude difference of the three Hansen parameters of the two compounds to arrive at Ra. […] Equation 2 allows one to calculate the Relative Energy Difference (RED) of the solvent and the material we are trying to dissolve, by dividing Ra by Ro. Ra was calculated in Equation 1 and measures the magnitude of the difference of the HSP values of the two compounds. The units for the HSP parameters δd, δp, δh are MPa^1/2. […] The Relative Energy Difference (RED) is a dimensionless number which quantifies how well a solvent will dissolve a solute. For an RED>>1 the compounds will not dissolve. For an RED˜1, there will be some dissolution. For an RED<1 there will be a considerable amount of dissolution. Essentially, the smaller RED value, the more solute will dissolve into the solvent, with RED=1 being a threshold where a given solute is starting to be soluble in a given solvent.
Referring now to FIG. 6, this diagram provides a flow chart showing how the biocompatible microdroplet solvent emulsion can be formulated. […] For an example of compounds which might be included in 400, please refer to Tables 1, 2, 3 and 4. However, this list of tables is by no means exhaustive and other compounds could be added to this list. The number of compounds selected can comprise of 1, 2, 3 or as many as are deemed necessary, which is symbolized by the variable n. The HSP parameters of a homogenous mixture of compounds are the weighted average of the HSP parameters of the individual components. […] Ideally, it is possible to formulate a solution such that the resultant RED of the mixture is smaller than the RED of any of the individual components.
The δdm, δpm, δhm calculated using Eq. 9 are the Hansen solubility parameters of the homogenous mixture, where m denotes mixture, and fi depicts the fraction of each of the n components used to fabricate the biocompatible solvent. Equation 10 can be used to calculate the RED of the final mixture, where Ro is the interaction radius of the cholesterol, or other component of arterial plaque one desires to dissolve using the biocompatible microdroplets and […] represents the Hansen solubility constants of cholesterol (dispersion, polar and hydrogen bonding components) or the HSP parameter of the arterial plaque which is being targeted.

The nature of data set [5]: Dissolving cholesterol by microdroplets in whole blood.
From the text: as §1
(§2) 1,8-cineole is classified as a cyclic ether and a monoterpenoid. […] This chemical gives certain fruits such as apples and strawberries their fruity taste, and is used as an additive in bubble gums for this purpose. […] It is used as a fragrance or flavouring agent. […] It is produced natuarally by the organism, and is found in abundance in shark liver oil.

The conditions of data set [6]: cited from earlier work; for LD50 dose: route not stated.
The conditions of data set [7]: cited from earlier work.
The conditions of data set [8]: cited from earlier work. The source holds these as a separate data set.
Data set [9] in a line: Dissolving cholesterol by microdroplets in a dilute solution in water.
From the text: as §2

In the case of `CCCCC/C=C\C/C=C\CCCCCCCC(=O)O` [Linoleic acid], in [1], the “result of solvent testing (dissolving cholesterol)” value (from here on “result of solvent testing”) is given as “very promising results”.

As for `CC(C)CCC[C@@H](C)[C@H]1CC[C@H]2[C@@H]3CC=C4C[C@@H](O)CC[C@]4(C)[C@H]3CC[C@]12C` [cholesterol, Cholesterol], in data set [2], the “δd London dispersion HSP parameter” value is reported as 20.4 MPa^1/2, the “δh hydrogen bonding HSP parameter” value is 9.4 MPa^1/2 and the “δp polarity HSP parameter” value was 2.8 MPa^1/2. Besides, in data set [3] (30° C.), the “solubility of cholesterol in pure water” value is “approximately 95 micrograms per litre” and the “solubility of cholesterol in water” value was 0.000095 grams/litre.

For the molecule `c1ccc(Oc2ccccc2)cc1` [Diphenyl ether], in [4], the “Ra^2 versus cholesterol” value is recorded as 17 and the “Relative Energy Difference (RED) with cholesterol” value (from here on “Relative Energy Difference (RED)”) was 0.32. Besides, the “efficacy of microdroplets at dissolving cholesterol in whole blood” value (shortened to “efficacy of microdroplets”) in data set [5] is listed as “excellent results”. In data set [2], the “δd London dispersion HSP parameter” value was 19.5 MPa^1/2, the “δh hydrogen bonding HSP parameter” value is 5.8 MPa^1/2 and the “δp polarity HSP parameter” value is 3.4 MPa^1/2. For the same molecule, the LD50 dose in data set [6] is 2.85 g/kg of body weight. The “excreted in the urine” value in [7] (once absorbed) is reported as 90%.

`CC/C=C\C/C=C\C/C=C\CCCCCCCC(=O)O` [Alpha-linolenic acid]: the “result of solvent testing” value in [1] is on record as “very promising results”.

For `Cc1ccc(C(C)C)cc1O` [Carvacrol], the “Relative Energy Difference (RED)” value in data set [4] is reported as 0.64. Besides, the “efficacy of microdroplets” value in data set [5] is listed as “excellent results”. Also, in data set [2], the “δd London dispersion HSP parameter” value is reported as 16.5 MPa^1/2, the “δh hydrogen bonding HSP parameter” value is on record as 11.4 MPa^1/2 and the “δp polarity HSP parameter” value is recorded as 3.2 MPa^1/2. In [8], the “solubility in water / water based blood” value is listed as “insoluble in water”.

`C=C(C)[C@H]1CC=C(C)CC1` [Limonene]: the “efficacy of microdroplets” value in data set [5] was “the cholesterol sample seemed to accumulate precipitate and swell”. For the same molecule, the “dissolving cholesterol in a dilute solution in water” value in data set [9] is on record as “dissolved cholesterol”. In data set [2], the “δd London dispersion HSP parameter” value was 17.2 MPa^1/2, the “δh hydrogen bonding HSP parameter” value is listed as 4.3 MPa^1/2 and the “δp polarity HSP parameter” value is on record as 1.8 MPa^1/2.

As for `O` [water, reference compound], the “Relative Energy Difference (RED)” value in [4] is recorded as 2.9. The “mass fraction of cholesterol which will dissolve in pure water” value in [3] (pure water) was 0.0000095%.

For `CC12CCC(CC1)C(C)(C)O2` [1,8-cineole], the “Relative Energy Difference (RED)” value in data set [4] is on record as 0.77. In data set [5] (up to a 4× difference in blood volume), the “efficacy at dissolving cholesterol, two experiments compared” value is “identical to within measurement error”. For the same molecule, the “efficacy of microdroplets” value in data set [5] is listed as “extremely good efficacy”. The “efficacy of microdroplets” value in data set [5] (listed as 1,8 cineole) is “excellent results; also recorded: excellent efficacy”. In addition, in [2], the “δd London dispersion HSP parameter” value is listed as 16.7 MPa^1/2, the “δh hydrogen bonding HSP parameter” value is recorded as 3.4 MPa^1/2 and the “δp polarity HSP parameter” value is on record as 4.6 MPa^1/2.

For `CC(=O)c1ccccc1` [Acetophenone], the “Relative Energy Difference (RED)” value in [4] is listed as 0.66. In [2], the “δd London dispersion HSP parameter” value is on record as 19.6 MPa^1/2, the “δh hydrogen bonding HSP parameter” value is on record as 3.7 MPa^1/2 and the “δp polarity HSP parameter” value is on record as 8.6 MPa^1/2. Further, in [8] (in words), the “solubility in water / water based blood” value was “somewhat soluble in water”.

In the case of `CCOC(=O)OCC` [Diethyl carbonate], in data set [2], the “δd London dispersion HSP parameter” value is 16.6 MPa^1/2, the “δh hydrogen bonding HSP parameter” value is recorded as 6.1 MPa^1/2 and the “δp polarity HSP parameter” value is 3.1 MPa^1/2. For the same molecule, in [6] (oral), the LD50 was 8500 mg/kg.

As to `CCO` [Ethanol, reference compound], the “Relative Energy Difference (RED)” value in data set [4] is reported as 1.32. Also, the “mass fraction of cholesterol which will dissolve in a pure solution of the alcohol” value in data set [3] is reported as 3.3%.

As to `CCCO` [Propanol, reference compound], the “Relative Energy Difference (RED)” value in data set [4] was 1.10. In addition, in data set [3], the “mass fraction of cholesterol which will dissolve in a pure solution of the alcohol” value is reported as 11%.

As for `Brc1cccc2ccccc12` [1-Bromonaphthalene], the “result of solvent testing” value in data set [1] was “very promising results”.

Turning to `CC/C=C\C/C=C\C/C=C\C/C=C\C/C=C\CCCC(=O)O` [Elcosapentaenoic acid], the “result of solvent testing” value in data set [1] is listed as “very promising results”.

On to `O=C(OCc1ccccc1)c1ccccc1` [Benzyl benzoate], for which the “Ra^2 versus cholesterol” value in data set [4] is 24. Also, in data set [2], the “δd London dispersion HSP parameter” value is listed as 20 MPa^1/2, the “δh hydrogen bonding HSP parameter” value is 5.2 MPa^1/2 and the “δp polarity HSP parameter” value is 5.1 MPa^1/2. In addition, in data set [6], the LD50 dose was 1.68 g/kg.

For `O=C(O)c1ccccc1` [Benzoic acid], the “time to excretion in the urine” value in data set [7] (after ingestion) is ≤ 24 h.
